Experimental data as given in US20120196918A1, “PREVENTING ISLET INFLAMMATION AND DYSFUNCTION AND MAINTAINING PROPER GLUCOSE LEVELS BY CONTROLLING eIF5A AND ITS HYPUSINATION” (priority 2009, published 2012).

Key:
C57BL/6J mouse islets = test: GSIS and GSCa of islets isolated from siRNA-injected mice; assay type: cell-based
Method: To clarify this, islets were isolated from siRNA-injected mice and their function assessed in vitro. […] In order to further characterize this improvement in islet glucose responsiveness, glucose-stimulated Ca2+ mobilization (GSCa) studies were also performed. GSCa is a measure of islet glucose sensitivity that captures the dynamics of the islet glucose response, which is similar to GSIS (31). The GSCa, as measured by the change in fura-2 AM fluorescence ratio after glucose stimulation, was increased in si-eIF5A-treated islets compared to controls, reflecting the functional improvement seen in GSIS (FIG. 3D). This improved GSCa relative to controls persisted 48 and 72 hours post-isolation (data not shown).
A short cytokine exposure (4 h) was utilized to assess early impairment in islet function independent of islet cell death. […] As shown in the inset to FIG. 3E, eIF5A levels remained persistently lower in the si-eIF5A group even after cytokine exposure.
Cytokine and inhibitor incubation studies: For cytokine incubation assays, a 1000× cocktail of cytokines containing 5 μg/ml IL1β, 10 μg/ml TNFα, and 100 μg/ml IFNγ (all prepared in 0.1% BSA in Tris-buffered saline) was applied at 1× final concentration to groups of 50 islets or 1×10^6 INS-1 (832/13) cells for a total of 4 h at 37° C. For GC7 incubation studies, GC7 was prepared at a stock concentration of 125 mM in 10 mM acetic acid and applied to cultures of 50 islets or 1×10^6 INS-1 cells to obtain the final concentrations indicted in the figures. Where needed, GC7 was protected from amine oxidases in serum by addition of 1 mM aminoguanidine (Sigma). Cells were incubated with GC7 overnight (˜16 h) at 37° C. prior to analysis. Cells were exposed to Leptomycin B (Cayman Chemicals) for 3 hours; leptomycin B was prepared at a 1000× stock concentration of 20 μg/ml in ethanol.
GSCa imaging assays: Intracellular Ca^2+ ((Ca2+)i) was measured using the ratiometric Ca^2+ indicator fura-2 AM using a modification of previously published methods (79). The glucose-stimulated (Ca2+)i response (GSCa) was defined as the difference between ratio measurements (340/380 nm fluorescence) in 11 mM vs. 3 mM glucose. Data were analyzed with IP Lab's software version 4.0 (Scanalytics).
GSIS and IPGTT studies: For GSIS studies using isolated islets, approximately 50 islets or 1×10^6 INS-1 cells per condition were washed and incubated in Krebs-Ringer HEPES-buffered (KRB) solution for one hour at 37° C., and then placed in KRB solution containing 3 mM or 11 mM glucose for one hour. […] Blood glucose was measured from samples taken from the tail vein before intraperitoneal injection of 1 g glucose per kg mouse weight, and at 10, 20, 30, 60, 90, 120, and 180 minutes after glucose administration using an A1phaTrak® glucometer (Abbott).

eIF5A-Hyp = test: New hypusine formation (3H-spermidine incorporation) in INS-1 (832/13) cells; assay type: cell-based, rat; settings: GC7 125 μM overnight
Excerpt: eIF5A1 and eIF5A2 are the only proteins known to contain the unique amino acid hypusine at position 50. Hypusine is formed as a posttranslational modification of residue Lys50 in a reaction requiring spermidine and catalyzed by the sequential actions of the enzymes deoxyhypusine synthase (DHS) and deoxyhypusine hydroxylase (DOHH) (Chen, K Y, and Liu, A Y. Biochemistry and function of hypusine formation on eukaryotic initiation factor 5A. Biol Signals. 1997; 6(3):105-109). […] To further investigate the mechanism of eIF5A-regulated translation of Nos2, studies were performed following overnight incubation of cells with mimosine (an inhibitor of DOHH) and GC7 (an inhibitor of DHS). […] Similar data using GC7 were obtained in primary mouse islets (data not shown) and in human islets (FIGS. 5F and 5G). […]
Measurement of hvpusination: Approximately 100 islets or 1×10^6 INS-1 cells per condition were incubated with 1.5 μCi ^3H-spermidine (Perkin Elmer) in the presence of 1 mM aminoguanidine. […] Gels were visualized by fluorography, and bands were quantitated using Kodak Molecular Imaging Software v. […]

eIF5A = eIF5A nuclear-to-cytoplasmic translocation in INS-1 cells (immunofluorescence); assay type: cell-based, rat; settings: pretreatment, then cytokines 4 h
Method: Given the striking retention of Nos2 transcripts in the absence of eIF5A-Hyp, it was of interest to determine whether the intracellular distribution of eIF5A accounts for its effect on Nos2 nucleo-cytoplasmic shuttling. Immunofluorescence of eIF5A in fixed INS-1 cells, were thus performed. […] Upon treatment of cells with cytokines, there was a shift in the eIF5A distribution pattern from the nucleus to the cytoplasm.
Cytokine and inhibitor incubation studies: For cytokine incubation assays, a 1000× cocktail of cytokines containing 5 μg/ml IL1β, 10 μg/ml TNFα, and 100 μg/ml IFNγ (all prepared in 0.1% BSA in Tris-buffered saline) was applied at 1× final concentration to groups of 50 islets or 1×10^6 INS-1 (832/13) cells for a total of 4 h at 37° C. For GC7 incubation studies, GC7 was prepared at a stock concentration of 125 mM in 10 mM acetic acid and applied to cultures of 50 islets or 1×10^6 INS-1 cells to obtain the final concentrations indicted in the figures. […]
Immunofluorescence: Immunofluorescence of INS-1 cells proceeded essentially as described previously (71), using primary antibodies to eIF5A1 and secondary anti-mouse Alexa-488-conjugated antibody (Invitrogen), or by direct visualization of GFP fusion proteins at 488 nm. […] Quantitation of cytoplasic-to-nuclear ratios of eIF5A staining was performed using Axio-Vision Software, v. […]

[1] = IL-1β, TNFα, IFNγ for 4 h, compared to controls

## 5′-AACGGAAUGACUUCCAGCUGA-3′ (siSTABLE modification, further chemistry not given here) [si-eIF5A]
C57BL/6J mouse islets; [1]
  GSCa of isolated islets after cytokines: significant preservation
  GSIS of isolated islets after cytokines: significant preservation
C57BL/6J mouse islets; islets from siRNA-injected mice, no cytokines
  glucose-stimulated insulin secretion (GSIS) of isolated islets: significant improvement in islet response to glucose stimulation
C57BL/6J mouse islets; islets from siRNA-injected mice, no cytokines, compared to controls
  glucose-stimulated Ca2+ mobilization (GSCa) of isolated islets: increased

## NCCCCCCCN=C(N)N [GC7]
eIF5A-Hyp
  new hypusine formation in INS-1 (832/13): effectively inhibits new hypusine formation
eIF5A
  cytokine-induced translocation of eIF5A: failed to induce the nuclear to cytoplasmic translocation of eIF5A
